Experimental data published in patent US11976069B2, “Inhibitors of histone deacetylase useful for the treatment or prevention of HIV infection” (Merck Sharp & Dohme LLC, priority 2019, dated 2024).
Read-outs that look alike come from different tables or passages of the source.

Key:
HDAC3/SMRT heterodimer = biological target: T1, HDAC3/SMRT heterodimer (Homo sapiens, UniProt O15379); assay: HDAC3/SMRT inhibition, modified Fluor-de-Lys assay; format: biochemical; details: 3 h pre-incubation, 0.3 nM enzyme, 20 μM substrate BML-KI104, read-out: HDAC-3 IC50
T1 construct: FLAG (C)
Method: (§1) Human HDAC Enzyme Inhibitor FLUOR-DE-LYS Assay Materials
(§2) Recombinant human HDAC1, HDAC2, and HDAC3/SMRT heterodimer were prepared by Merck Research Laboratories. […] The eluted protein was then passed over an anti-HDAC1 immunoaffinity column to remove any complexes containing HDAC1. […]
(§3) The histone deacetylase activities of HDAC1, HDAC2, HDAC3, HDAC6, and HDAC8 were measured in modified Fluor-de-Lys assays in 384-well format. In this assay, HDAC enzymes are initially incubated with an ε-acetyl (or -trifluoroacetyl)-L-lysine-containing substrate with a C-terminal amide having aminomethylcoumarin as the amine component. HDACs cleave the ε-acetyl group, rendering the resulting product susceptible to AMC cleavage by trypsin. The released AMC is then detected by its fluorescence.
(§4) The HDAC 1, 2 assays employed buffer A, which contained 20 mM HEPES, pH 8.0, 1 mM MgCl2, 137 mM NaCl, 2.7 mM KCl, 0.05% BSA. The HDAC3/SMRT assay employed buffer B, consisting of 20 mM HEPES, pH 8.0, 1 mM MgCl2, 50 mM NaCl, 2.7 mM KCl, 0.05% BSA, 0.005% Tween 20, and 10 μM IP4. The HDAC6 assay employed buffer C, consisting of 20 mM HEPES, pH 8.0, 1 mM MgCl2, 137 mM NaCl, 2.7 mM KCl, 0.5 mM TCEP (Calbiochem) and 0.05% BSA. The HDAC8 assay employed buffer D, consisting of 20 mM HEPES, pH 8.0, 1 mM MgCl2, 100 mM NaCl, 20 mM KCl, 0.1% n-octyl-β-D-glucoside (Anatrace, Maumee, Ohio) and 0.05% BSA. All steps were performed at room temperature (23° C.). The assay was performed by pre-incubating serial dilutions of test compounds with the target HDAC prior to initiation with substrate. Each compound was titrated in a 10-point dose response, using a 1:3 fold dilution scheme, with 0.15 ul of solution added by ECHO555 to the plate, followed by the addition of 20 μl of the appropriate HDAC isoform diluted in appropriate assay buffer. […] Final conditions used for each assay were: 1. HDAC 1, 0.3 nM total enzyme, 20 μM substrate BML-KI104; 2. HDAC 2, 1.5 nM total enzyme, 40 μM substrate BML-KI104; 3. HDAC 3/SMRT, 0.3 nM total enzyme, 20 μM substrate BML-KI104; 4. HDAC 6, 1.3 nM total enzyme, 2.5 μM substrate BML-KI104; 5. HDAC 8, 1.3 nM total enzyme, 200 μM substrate BML-KI178; the final high dose of test compound was 30 μM. For potent compounds, 900 nM was used as the final high dose. The reactions were stopped and developed by addition of 30 ul of HDAC developer solution containing a saturating level of HDAC inhibitor as follows: 1.

HDAC2 = biological target: T2, HDAC2 (Homo sapiens, UniProt Q92769); assay: HDAC2 inhibition, modified Fluor-de-Lys assay; format: biochemical; details: 3 h pre-incubation, 40 μM substrate BML-KI104, read-out: HDAC-2 IC50
T2 construct: Full length human HDAC2-FLAG was expressed in baculovirus infected Sf9 cells; FLAG (C); host or cells: baculovirus infected Sf9 cells
Method: as §1, §2, §3, §4

HDAC1 = biological target: T3, HDAC1 (Homo sapiens, UniProt Q13547); assay: HDAC1 inhibition, modified Fluor-de-Lys assay; format: biochemical; details: 3 h pre-incubation, 0.3 nM enzyme, 20 μM substrate BML-KI104; read-out: HDAC-1 IC50
T3 construct: FLAG (C)
Method: as §1, §2, §3, §4

KARN cells (Jurkat 2C4) = assay: KARN assay (luciferase induction); format: cell-based; details: Jurkat, ~20 hr, 100% induction = 2 μM SAHA
Method: KARN cells (Jurkat 2C4) were licensed from the laboratory of Dr. John Kam, Case Western Reserve University, School of Medicine. […] An atmosphere of 5% CO2 and 90% humidity was used for all culture work. Cells were split and reseeded into T175 flasks at a density of 0.2×10^6 cells/ml, in 40 ml of media, every 3-4 days.
Day 1: After the 3-4 day growth period, the cells were transferred from the T175 flask to a 50 ml conical tube and gently pelleted at 1000 rpm for 5 minutes. […] These flasks were returned to the incubator.
Day 2: Cell Preparation: The next day, the cells were transferred from each T175 flask to an individual 50 ml conical tube and gently pelleted at 1000 rpm for 5 minutes. The cells were gently resuspended in assay media (30 ml) and pelleted again. […] The cells were counted using the ViCell (Beckman Coulter, Brea, Calif.) and diluted as necessary. A Multidrop (Combi, Thermo Scientific, Waltham, Mass.) with a sterile head was used to seed the cells into the wells of a 384-well solid black plate with lid (Perkin Elmer, Waltham, Mass., catalog number 6007660) at 4000 cells/30 μl/well for the 5% NHS assay media and 6000 cells/30 μl/well for 0.1% NHS assay. The plates were covered and returned to the incubator prior to compound addition.
Compound Preparation: Solutions of control inhibitor suberoylanilide hydroxamic acid (SAHA; Sigma, catalog number SML0061) and test compounds in 100% DMSO were titrated into 384-well polypropylene plates (Labcyte, San Jose, Calif., catalog number P-05525) using a 20-point dose response and 2-fold dilutions. The reference compounds, DMSO and SAHA were then added to the compound plate. Using the Access system (Labcyte), 120 nl of these inhibitor and control solutions were added to the individual wells of the plates containing the cells, and the plates were then returned to the incubator for ˜20 hr (range from 18-24 hr). The final high concentration for SAHA and the test compounds in the assays was 40 μM. The final DMSO concentration in all wells was 0.4%. The minimal induction reference compound used was DMSO and the maximal induction reference compound used was SAHA (2 μM final concentration in the assay).
Day 3: The luciferase detection reagent was prepared by transferring the contents of one bottle of Steady-Glo buffer to one bottle of Steady-Glo substrate (Steady-Glo Luciferase Assay System, Promega, Madison, […]., catalog number E2520), followed by gently mixing until the substrate was thoroughly dissolved and the solution was equilibrated to room temperature. The cell culture assay plates were removed from the incubator and brought to room temperature (15 min). The Steady-Glo Reagent was added to the plates (30 μl/well), which were then covered with a black lid and incubated for 10 minutes at room temperature. The plates were then read for luminescence on an Envision (Perkin Elmer) using the ultrasensitive mode (US LUM), […] and 384-well aperture. Luminescence counts in the DMSO reference wells were considered as 0% induction, while those in the 2 μM SAHA reference wells were considered as 100% induction. Dose response curves were plotted as test compound concentration (X-axis) vs. percent activation (Y-axis) using a 4-parameter fit based on the Levenberg-Marquardt algorithm.

[1] = read-out: Karn EC50 with 0.1% NHS, 0.1% normal human serum
[2] = read-out: Karn EC50 with 5% NHS, 5% normal human serum

T3 sequence (Q13547 whole entry): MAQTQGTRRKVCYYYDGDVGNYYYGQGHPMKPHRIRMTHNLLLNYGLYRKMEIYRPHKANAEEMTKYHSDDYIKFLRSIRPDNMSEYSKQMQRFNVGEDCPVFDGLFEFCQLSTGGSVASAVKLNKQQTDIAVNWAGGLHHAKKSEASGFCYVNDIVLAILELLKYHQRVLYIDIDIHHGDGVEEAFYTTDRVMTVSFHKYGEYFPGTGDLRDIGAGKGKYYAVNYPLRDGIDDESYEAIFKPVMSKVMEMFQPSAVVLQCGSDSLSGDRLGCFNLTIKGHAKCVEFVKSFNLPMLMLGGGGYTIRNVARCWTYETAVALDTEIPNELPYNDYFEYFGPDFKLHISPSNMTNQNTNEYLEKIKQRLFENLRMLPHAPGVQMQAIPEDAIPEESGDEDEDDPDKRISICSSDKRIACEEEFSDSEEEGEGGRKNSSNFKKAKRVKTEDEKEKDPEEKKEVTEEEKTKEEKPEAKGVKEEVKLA
T1 sequence (O15379 whole entry): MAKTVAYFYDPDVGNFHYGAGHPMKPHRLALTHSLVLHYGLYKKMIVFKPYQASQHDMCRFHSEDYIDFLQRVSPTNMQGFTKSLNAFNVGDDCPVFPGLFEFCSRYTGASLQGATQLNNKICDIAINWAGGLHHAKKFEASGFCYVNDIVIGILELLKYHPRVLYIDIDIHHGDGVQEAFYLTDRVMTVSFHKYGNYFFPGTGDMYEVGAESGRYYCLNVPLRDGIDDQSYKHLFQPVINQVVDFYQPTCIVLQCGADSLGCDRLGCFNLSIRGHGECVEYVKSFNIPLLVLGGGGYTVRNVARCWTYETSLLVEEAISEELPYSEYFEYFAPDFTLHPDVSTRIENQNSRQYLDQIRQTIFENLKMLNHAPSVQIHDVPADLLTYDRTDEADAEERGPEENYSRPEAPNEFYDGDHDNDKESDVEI
T1 sequence (Q9Y618 1-899 partner limits assumed): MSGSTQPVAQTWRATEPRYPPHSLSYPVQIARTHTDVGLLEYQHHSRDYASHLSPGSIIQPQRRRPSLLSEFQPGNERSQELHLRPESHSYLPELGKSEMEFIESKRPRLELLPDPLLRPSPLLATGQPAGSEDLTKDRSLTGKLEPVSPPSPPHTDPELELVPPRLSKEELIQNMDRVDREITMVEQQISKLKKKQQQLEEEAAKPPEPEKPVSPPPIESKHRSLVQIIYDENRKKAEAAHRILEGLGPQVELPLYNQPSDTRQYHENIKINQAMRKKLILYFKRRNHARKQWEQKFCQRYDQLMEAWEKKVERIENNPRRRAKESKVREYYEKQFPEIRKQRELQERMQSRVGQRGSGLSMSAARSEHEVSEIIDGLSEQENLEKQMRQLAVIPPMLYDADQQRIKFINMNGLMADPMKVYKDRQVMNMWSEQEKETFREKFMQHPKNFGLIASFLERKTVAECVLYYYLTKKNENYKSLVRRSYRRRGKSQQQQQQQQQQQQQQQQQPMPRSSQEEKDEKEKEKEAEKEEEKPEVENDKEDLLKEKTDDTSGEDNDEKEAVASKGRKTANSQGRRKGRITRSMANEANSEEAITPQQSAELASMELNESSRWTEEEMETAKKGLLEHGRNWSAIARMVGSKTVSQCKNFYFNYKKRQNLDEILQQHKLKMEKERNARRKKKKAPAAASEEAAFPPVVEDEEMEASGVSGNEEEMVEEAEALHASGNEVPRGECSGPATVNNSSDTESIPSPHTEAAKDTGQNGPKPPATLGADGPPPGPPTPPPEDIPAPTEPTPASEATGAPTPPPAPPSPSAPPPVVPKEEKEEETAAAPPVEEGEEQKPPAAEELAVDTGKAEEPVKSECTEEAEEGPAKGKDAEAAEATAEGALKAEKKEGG
T2 sequence (Q92769 whole entry): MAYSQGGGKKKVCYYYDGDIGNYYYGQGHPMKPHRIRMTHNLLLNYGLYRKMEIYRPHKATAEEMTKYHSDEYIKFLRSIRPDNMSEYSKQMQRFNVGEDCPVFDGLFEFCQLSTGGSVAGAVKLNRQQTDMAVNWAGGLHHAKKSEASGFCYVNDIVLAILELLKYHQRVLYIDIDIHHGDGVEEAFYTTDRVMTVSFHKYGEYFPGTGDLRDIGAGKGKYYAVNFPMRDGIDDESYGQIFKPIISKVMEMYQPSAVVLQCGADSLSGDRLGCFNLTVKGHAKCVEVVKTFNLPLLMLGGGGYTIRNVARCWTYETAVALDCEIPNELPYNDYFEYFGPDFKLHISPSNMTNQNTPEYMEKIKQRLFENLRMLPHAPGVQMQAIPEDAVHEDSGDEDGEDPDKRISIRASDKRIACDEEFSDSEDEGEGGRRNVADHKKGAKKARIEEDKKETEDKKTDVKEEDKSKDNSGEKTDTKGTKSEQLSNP

CCC(=O)CCCCC[C@@H]1NC(=O)CN(C)CCCCOCCCCn2ccc3cc(ccc3c2=O)-c2cnc1[nH]2 [Compound 6, (3S)-7-methyl-3-(6-oxooctyl)-11,12-dihydro-21H-12-oxa-4,7-diaza-1(6,2)-isoquinolina-2(5,2)-imidazolacyclohexadecaphane-11,5-dione]
IC50 (HDAC3/SMRT heterodimer): 248 nM
IC50 (HDAC2; […] enzyme): 595 nM
IC50 (HDAC1): 28 nM
EC50 (KARN cells (Jurkat 2C4); [1]): 2500 nM
EC50 (KARN cells (Jurkat 2C4); [2]): 3510 nM

CCC(=O)CCCCC[C@@H]1NC(=O)[C@H]2CC23CCN(CCCOCCn2ccc4cc(ccc4c2=O)-c2cnc1[nH]2)CC3 [Compound 11, (3S,6S)-6-(6-oxooctyl)-21-oxa-5,8,18,25,32-pentaazahexacyclo[23.2.2.1˜7,10˜0.1˜11,15˜0.1˜14,18˜0.0˜1,3˜] dotriaconta-7,9,11(31),12,14,16-hexaene-4,30-dione]
IC50 (HDAC3/SMRT heterodimer): 2.6 nM
IC50 (HDAC2; […] enzyme): 22 nM
IC50 (HDAC1): 0.11 nM
EC50 (KARN cells (Jurkat 2C4); [1]): > 40000 nM
EC50 (KARN cells (Jurkat 2C4); [2]): > 40000 nM

CCC(=O)CCCCC[C@@H]1NC(=O)[C@H]2CC23CCN(CCCCCOc2ccc4cc(ccc4n2)-c2cnc1o2)CC3 [Compound 9]
IC50 (HDAC3/SMRT heterodimer): 150 nM
IC50 (HDAC2; […] enzyme): 335 nM
IC50 (HDAC1): 24 nM
EC50 (KARN cells (Jurkat 2C4); [1]): > 40000 nM
EC50 (KARN cells (Jurkat 2C4); [2]): > 40000 nM

CCC(=O)CCCCC[C@@H]1NC(=O)[C@H]2CC23CCN(CCOCCn2ccc4cc(ccc4c2=O)-c2cnc1[nH]2)CC3 [Compound 4, (1^1S,4S)-4-(6-oxooctyl)-6^1,6^2-dihydro-5^1H-9-oxa-3-aza-6(6,2)-isoquinolina-12(4,1)-piperidina-5(2,5)-imidazola-1(1,2)-cyclopropanadodecaphane-6^1,2-dione]
IC50 (HDAC3/SMRT heterodimer): 7.1 nM
IC50 (HDAC2; […] enzyme): 35 nM
IC50 (HDAC1): 0.61 nM
EC50 (KARN cells (Jurkat 2C4); [1]): > 40000 nM
EC50 (KARN cells (Jurkat 2C4); [2]): > 40000 nM

CCC(=O)CCCCC[C@@H]1NC(=O)[C@H]2CC23CCN(CCCCCCCCn2ccc4cc(ccc4c2=O)-c2cnc1[nH]2)CC3 [Compound 1, (3S,6S)-6-(6-oxooctyl)-5,8,18,27,34-pentaazahexacyclo[25.2.2.1˜7,10˜.1˜11,15˜.1˜14,18˜.0˜1,3˜]tetratriaconta-7,9,11(33),12,14,16-hexaene-4,32-dione]
IC50 (HDAC3/SMRT heterodimer): 0.061 nM
IC50 (HDAC2; […] enzyme): 0.43 nM
IC50 (HDAC1): 0.2 nM
EC50 (KARN cells (Jurkat 2C4); [1]): 14 nM
EC50 (KARN cells (Jurkat 2C4); [2]): 16 nM

CCC(=O)CCCCC[C@@H]1NC(=O)[C@H]2CC23CCN(CCCCN2C4CCC2c2cc(ccc24)-c2cnc1[nH]2)CC3 (stereo partly drawn) [Compound 10, (3S,6S)-6-(6-oxooctyl)-5,8,20,25,31-pentaazaheptacyclo[23.2.2.1˜7,10˜.1˜11,15˜.0˜1,3˜.0˜14,19˜0.0˜16,20˜]hentriaconta-7,9,11(30),12,14-pentaen-4-one]
IC50 (HDAC3/SMRT heterodimer): 49 nM
IC50 (HDAC2; 1.5 nM enzyme): 148 nM
IC50 (HDAC1): 19 nM
EC50 (KARN cells (Jurkat 2C4); [1]): 844 nM
EC50 (KARN cells (Jurkat 2C4); [2]): 867 nM

CCC(=O)CCCCC[C@@H]1NC(=O)[C@H]2CC23CCN(CCCCN2C4CCC2c2c(cccc24)-c2cnc1[nH]2)CC3 (stereo partly drawn) [Compound 2, (11S,4S)-4-(6-oxooctyl)-61,62,63,64-tetrahydro-51H-3-aza-6(5,9)-1,4-epiminonaphthalena-11(4,1)-piperidina-5(2,5)-imidazola-1(1,2)-cyclopropanaundecaphan-2-one]
IC50 (HDAC3/SMRT heterodimer): 24 nM
IC50 (HDAC2; 1.5 nM enzyme): 176 nM
IC50 (HDAC1): 45 nM
EC50 (KARN cells (Jurkat 2C4); [1]): 6270 nM
EC50 (KARN cells (Jurkat 2C4); [2]): 9060 nM

CCC(=O)CCCCC[C@H](NC(=O)[C@H]1CC12CCN(CC)CC2)c1[nH]c2nc1C(=O)NCCCCCc1cccc-2c1 [Compound 13, (S)-6-ethyl-N-((S)-7-oxo-1-((Z)-9-oxo-11H-8-aza-1(2,4)-imidazola-2(1,3)-benzenacyclononaphane-15-yl)nonyl)-6-azaspiro[2.5]octane-1-carboxamide]
IC50 (HDAC3/SMRT heterodimer): 103 nM
IC50 (HDAC1): 109 nM
EC50 (KARN cells (Jurkat 2C4); [1]): > 40000 nM
EC50 (KARN cells (Jurkat 2C4); [2]): 12000 nM

CCC(=O)CCCCC[C@@H]1NC(=O)[C@H]2CC23CCN(C/C=C/CN2C4CCC2c2cc(ccc24)-c2cnc1[nH]2)CC3 (stereo partly drawn) [Compound 3, (1^1S,4S,E)-4-(6-oxooctyl)-6^1,6^2,6^3,6^4-tetrahydro-5^1H-3-aza-6(6,9)-1,4-epiminonaphthalena-11(4,1)-piperidina-5(2,5)-imidazola-1(1,2)-cyclopropanaundecaphan-8-en-2-one]
IC50 (HDAC3/SMRT heterodimer): 0.86 nM
IC50 (HDAC2; 1.5 nM enzyme): 7 nM
IC50 (HDAC1): 2.7 nM
EC50 (KARN cells (Jurkat 2C4); [1]): 73 nM
EC50 (KARN cells (Jurkat 2C4); [2]): 76 nM
